Measurements: patent publication US10919941B2, “Functional lipid constructs” (KODE BIOTECH LIMITED, priority 2007, dated 2021)
No end group written: not given here.

Tested on: Miltenberger Antibody Positive Panel
Assay: Reactivity of modified RBCs against the Miltenberger Antibody Positive Panel
Type: cell-based, human
Parameters: key to score vs panel 15 TAP2 / score vs panel 4 T7202 / score vs panel 8 T5896 / score vs panel 2 T217 / score vs panel 3 T165 / score vs panel 14 TAP1 / score vs panel 10 Mia / score vs panel 11 Mur / score vs panel 12 Gam / score vs panel 6 T6025 / score vs panel 7 T8445 / score vs panel 9 MIII / score vs panel 13 BoxH / reactivity with Panel Serum #7 (T8445) / agglutination score, Panel Serum #7 (T8445): 0 or ‘−’ no agglutination; 0 or ‘−’ no agglutination; 1+ or 3=very weak agglutination; 1+ or 3=very weak agglutination; 2+ or 5=weak agglutination; 2+ or 5=weak agglutination; 3+ or 8=moderate strong agglutination; 3+ or 8=moderate strong agglutination; 4+ or 10/12=strong agglutination; 4+ or 10/12=strong agglutination; 4+ or 10/12=strong agglutination
Protocol: Red blood cells are modified by mixing 1 part by volume of washed packed red blood cells with 1 part by volume of peptide-lipid construct dispersed at a concentration of 10 to 1000 pg/ml in cell media (Celpresol™).
The suspensions are either: • 1. incubated for 2 hours at 37° C. before being washed and suspended in a cell medium for serological analysis at a concentration of 0.8 to 3% (Method 1); or • 2. incubated for 3 to 4 hours at room temperature (circa 25° C.) followed by 18 hours at 4° C. before being washed and suspended in a cell medium for serological analysis at a concentration of 0.8 to 3% (Method 2).
Serological reactions are graded or scored by either of two established systems (0 or ‘−’ no agglutination, 1+ or 3=very weak agglutination, 2+ or 5=weak agglutination, 3+ or 8=moderate strong agglutination, 4+ or 10/12=strong agglutination)
Serological platforms used are Tube (addition of reagents and reactants into plastic or glass serology tubes and after appropriate incubations, washing and centrifugation observing reactions macroscopically by eye and a 10× magnification eyepiece and scoring) and BioVue™ (addition of reactants into cassettes containing beads (including some reactants) and after appropriate incubations and centrifugation observing the reaction patterns trapped within the Gel matrix). BioVue is the serological column agglutination platform of Ortho-Clinical Diagnostics. Diamed is the serological column agglutination platform of Diamed AG.

Substance | score vs panel 2 T217 (Table 9, construct 50 μg/ml) | score vs panel 4 T7202 (Table 9, construct 50 μg/ml) | score vs panel 7 T8445 (Table 9, construct 50 μg/ml) | score vs panel 8 T5896 (Table 9, construct 50 μg/ml) | score vs panel 2 T217 (Table 9, construct 100 μg/ml) | score vs panel 3 T165 (Table 9, construct 100 μg/ml) | score vs panel 4 T7202 (Table 9, construct 100 μg/ml) | score vs panel 6 T6025 (Table 9, construct 100 μg/ml) | score vs panel 7 T8445 (Table 9, construct 100 μg/ml) | score vs panel 8 T5896 (Table 9, construct 100 μg/ml) | score vs panel 9 MIII (Table 9, construct 100 μg/ml) | score vs panel 10 Mia (Table 9, construct 100 μg/ml) | score vs panel 11 Mur (Table 9, construct 100 μg/ml) | score vs panel 13 BoxH (Table 9, construct 100 μg/ml) | score vs panel 12 Gam (Table 9, construct 100 μg/ml) | further results
M27: DOPE peptide-lipid construct: Mur peptide TYPAHTAN, leader c, spacer CMG(2) (TYPAHTANC; also: DOPE peptide-lipid construct via leader Cys, spacer CMG(2)) | 0 | 10 | 0 | 0 | – | – | – | – | – | – | – | – | – | – | – | score vs panel 15 TAP2 (Table 9, construct 50 μg/ml): 0
M21: DOPE peptide-lipid construct: MUTK peptide SQTNDKHKRD, leader c, spacer CMG(2) (SQTNDKHKRDC; also: DOPE peptide-lipid construct via leader Cys, spacer CMG(2)) | – | – | – | – | – | – | – | – | – | – | – | – | – | – | – | score vs panel 2 T217 (Table 8, construct 200 μg/ml): 0; score vs panel 3 T165 (Table 8, construct 200 μg/ml): 8; score vs panel 4 T7202 (Table 8, construct 200 μg/ml): 0; score vs panel 6 T6025 (Table 8, construct 200 μg/ml): 8; score vs panel 7 T8445 (Table 8, construct 200 μg/ml): 0; score vs panel 8 T5896 (Table 8, construct 200 μg/ml): 0; score vs panel 9 MIII (Table 8, construct 200 μg/ml): 0; score vs panel 10 Mia (Table 8, construct 200 μg/ml): 0; score vs panel 11 Mur (Table 8, construct 200 μg/ml): 0; score vs panel 12 Gam (Table 8, construct 200 μg/ml): 3; score vs panel 15 TAP2 (Table 8, construct 200 μg/ml): 5
M14: DOPE peptide-lipid construct: Mur peptide DTYPAHTANEVSE, leader c, spacer CMG(2) (DTYPAHTANEVSEC; also: DOPE peptide-lipid construct via leader Cys, spacer CMG(2)) | 0 | 3 | 8 | 0 | 3 | 10 | 5 | 10 | 5 | 0 | 0 | 0 | 0 | 0 | – | score vs panel 2 T217 (Table 9, construct 10 μg/ml): 0; score vs panel 3 T165 (Table 9, construct 10 μg/ml): 10; score vs panel 4 T7202 (Table 9, construct 10 μg/ml): 0; score vs panel 6 T6025 (Table 9, construct 10 μg/ml): 8; score vs panel 7 T8445 (Table 9, construct 10 μg/ml): 5; score vs panel 8 T5896 (Table 9, construct 10 μg/ml): 0; score vs panel 9 MIII (Table 9, construct 10 μg/ml): 0; score vs panel 10 Mia (Table 9, construct 10 μg/ml): 0; score vs panel 11 Mur (Table 9, construct 10 μg/ml): 0; score vs panel 13 BoxH (Table 9, construct 10 μg/ml): 0; score vs panel 3 T165 (Table 9, construct 50 μg/ml): 10; score vs panel 6 T6025 (Table 9, construct 50 μg/ml): 5; score vs panel 9 MIII (Table 9, construct 50 μg/ml): 0; score vs panel 10 Mia (Table 9, construct 50 μg/ml): 0; score vs panel 11 Mur (Table 9, construct 50 μg/ml): 0
M16: DOPE peptide-lipid construct: Mur peptide TYPAHTANEV, leader c, spacer PEG (TYPAHTANEVC; also: DOPE peptide-lipid construct via leader Cys, spacer PEG) | – | – | – | – | 0 | 10 | 5 | 5 | 12 | 0 | 0 | 0 | 0 | 0 | 0 | –
M18: DOPE peptide-lipid construct: Mur peptide PAHTANEV, leader c, spacer CMG(2) (PAHTANEVC; also: DOPE peptide-lipid construct via leader Cys, spacer CMG(2)) | – | – | – | – | 0 | 10 | 0 | 10 | 8 | 0 | 0 | 0 | 0 | – | 0 | –
